Test systems include XF498; HOP-18; DMS-114; RXF 631; LXFL 529; DLD-1; DMS-273; M19-MEL; SNB-78.
Test in all cases: DTP human tumour cell line panel, 48 h

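Interpolation was linear, between the two tested concentrations surrounding the appropriate level; five concentrations were tested over 48 hours in 96-well plates. GI50: concentration for 50% inhibition of growth.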 Active and inactive are the calls of the source. Rule as the data show it: active = GI50 up to about 1.1 µM and inactive = higher.

On to `COc1ccccc1NC(=O)C1=C(C)NC(C)=C(C(=O)Nc2ccccc2OC)C1c1ccccc1Cl`, for which the GI50 (usually the concentration at which growth is held to half of that of the control) in the experiment on XF498 is 37.7 µM (inactive); with HOP-18 it was > 100 µM (inactive); in the experiment on DMS-114, 45.5 µM (inactive); in the experiment on RXF 631, > 100 µM (inactive); in the experiment with LXFL 529, > 100 µM (inactive); in the experiment with DLD-1, > 100 µM (inactive). The GI50 in the experiment on DMS-273 and in the experiment on M19-MEL was > 100 µM (inactive) throughout.

Regarding `CC(C)(C)C1C=C(Sc2ccccc2)C(=O)O1` (stereo unspecified), the GI50 in the experiment on SNB-78 was 63 µM (inactive); in the experiment on HOP-18, 75.9 µM (inactive); with DMS-114, 32.8 µM (inactive); with LXFL 529, 34.8 µM (inactive); in the experiment on DLD-1, 42.5 µM (inactive); in the experiment with DMS-273, 40.7 µM (inactive). The GI50 in the experiment with M19-MEL is 48.9 µM (inactive).

Regarding `CC(=O)OC12COC1CC(O)C1(C)C(=O)C(O)C3=C(C)C(O)CC(O)(C(OC(=O)c4ccccc4)C21)C3(C)C` (stereo unspecified), the GI50 with SNB-78 was > 100 µM (inactive); in the experiment with XF498, 2.36 µM (inactive); with DMS-114, 6.97 µM (inactive); in the experiment on DMS-273, 0.731 µM (active); in the experiment on M19-MEL, 7.67 µM (inactive).

As to `O=C1C=C(c2c(O)ccc3ccccc23)c2ccccc2C1=O`, the GI50 with SNB-78 is 2.26 µM (inactive); with HOP-18, 8.81 µM (inactive); with DMS-114, 2.04 µM (inactive); in the experiment on RXF 631 it was 6.56 µM (inactive); in the experiment on LXFL 529, 1.59 µM (inactive); in the experiment on DLD-1, 3.76 µM (inactive). Further, the GI50 is 3.46 µM (inactive) in the experiment with DMS-273 and 1.64 µM (inactive) with M19-MEL.

With `COc1ccc(N2C(=O)/C(=C(\C)c3cc4ccccc4oc3=O)N=C2c2cc([N+](=O)[O-])ccc2Cl)cc1`, the GI50 in the experiment with SNB-78 was 24.4 µM (inactive); with HOP-18, 85.1 µM (inactive); in the experiment with DMS-114 it was 24.2 µM (inactive); in the experiment on RXF 631, 36.6 µM (inactive); with LXFL 529, 29.9 µM (inactive); in the experiment on DLD-1, 54.7 µM (inactive). Also, in the experiment with M19-MEL, the GI50 is 42.1 µM (inactive).

`CCN(CC)CCCC(C)Nc1c2ccc(Cl)cc2nc2cc(Cl)ccc12` (stereo unspecified): the GI50 in the experiment with SNB-78 was 9.82 µM (inactive); with XF498, 4.99 µM (inactive); in the experiment on HOP-18, 5.42 µM (inactive); with DMS-114, 4.41 µM (inactive); in the experiment with DLD-1 it was 2.94 µM (inactive); in the experiment with DMS-273, 3.32 µM (inactive). Further, in the experiment with M19-MEL, the GI50 was 4.85 µM (inactive).

With `CCOC(=O)C1=C(O)C(=O)c2ccccc2C1=O`, the GI50 in the experiment with SNB-78, in the experiment with XF498, with HOP-18, in the experiment with DMS-114, in the experiment on DLD-1 and in the experiment on DMS-273 was > 100 µM (inactive) each time. Further, the GI50 in the experiment with M19-MEL was 22.2 µM (inactive).

In the case of `Clc1cccc(N2CCN(CCCN3CCc4c([nH]c5ccccc45)C3c3cccnc3)CC2)c1` (stereo unspecified), the GI50 with SNB-78 is 5.69 µM (inactive); in the experiment on XF498, 4.58 µM (inactive); in the experiment with HOP-18, 14.3 µM (inactive); in the experiment on DMS-114 it was 5.52 µM (inactive); in the experiment with RXF 631, 3.63 µM (inactive); in the experiment on LXFL 529, 6.52 µM (inactive). Moreover, the results for the GI50 in the experiment on DLD-1, in the experiment on DMS-273 and with M19-MEL were 11.2 µM (inactive), 5.98 µM (inactive) and 10.5 µM (inactive), respectively.

For `C/N=c1/ss/c(=N\C(SC)=[N+](C)C)n1C.[O-][Cl+3]([O-])([O-])[O-]`, the GI50 in the experiment with SNB-78 is > 100 µM (inactive); in the experiment on XF498 it was > 100 µM (inactive); with RXF 631, 8.13 µM (inactive); with LXFL 529 it was > 100 µM (inactive); in the experiment with DMS-273 it was > 100 µM (inactive).

Turning to `C/C(=N/NS(=O)(=O)c1c(C)cc(C)cc1C)c1cccc[n+]1[O-]`, the GI50 in the experiment on SNB-78, in the experiment on XF498, in the experiment with HOP-18, with DMS-114, with LXFL 529 and in the experiment with DLD-1 was > 100 µM (inactive) in each case. For the same compound, the GI50 in the experiment on DMS-273 and with M19-MEL was > 100 µM (inactive) each time.

As for `C/C=C/C(=O)[C@@H](O)C(C)C`, the GI50 in the experiment on SNB-78, with LXFL 529, with DMS-273 and in the experiment with M19-MEL was > 100 µM (inactive) throughout.

Regarding `O=C1C=CC(=O)C12CCc1ccccc12`, the GI50 was > 100 µM (inactive) in the experiment with SNB-78; > 100 µM (inactive) in the experiment on XF498; > 33.2 µM (inactive) in the experiment with HOP-18; > 100 µM (inactive) with DMS-114; > 100 µM (inactive) in the experiment on RXF 631; > 100 µM (inactive) in the experiment with LXFL 529. For the same compound, the results for the GI50 with DLD-1, in the experiment with DMS-273 and with M19-MEL were > 63.8 µM (inactive), > 100 µM (inactive) and > 100 µM (inactive), respectively.

`Clc1ccc(-c2c(C3=NCCCN3)nnn2-c2ccccc2)cc1`: the GI50 with SNB-78 is > 100 µM (inactive); in the experiment with XF498, > 100 µM (inactive); in the experiment on HOP-18, > 100 µM (inactive); in the experiment on DMS-114, 47.2 µM (inactive); in the experiment with RXF 631 it was 75.3 µM (inactive); in the experiment on LXFL 529, > 100 µM (inactive). Besides, the GI50 is 75 µM (inactive) in the experiment on DLD-1, > 100 µM (inactive) in the experiment with DMS-273 and 69.5 µM (inactive) in the experiment on M19-MEL.

For the compound `Cc1ccc(C(=O)N2c3ccccc3N(C)n3cccc3C2CC(=O)O)cc1` (stereo unspecified), the GI50 with SNB-78, in the experiment on XF498, in the experiment with DMS-114, with LXFL 529, in the experiment with DLD-1 and with DMS-273 was > 100 µM (inactive) throughout. In the experiment with M19-MEL, the GI50 was > 100 µM (inactive).

Consider `CC(=O)Nc1ccc(SC#N)c2c(NC(C)=O)cccc12`, for which the GI50 in the experiment with SNB-78 was 99.3 µM (inactive); with HOP-18 it was 45.2 µM (inactive); in the experiment on DMS-114, 43.1 µM (inactive); with RXF 631, > 82.8 µM (inactive); in the experiment with LXFL 529, 28 µM (inactive); in the experiment with DLD-1 it was 71.6 µM (inactive). For the same compound, the GI50 in the experiment with DMS-273 and with M19-MEL was > 100 µM (inactive) each time.

In the case of `C[C@]12CCC(=O)C(O)=C1CCC2=O`, the GI50 in the experiment on SNB-78, in the experiment on HOP-18, in the experiment on LXFL 529, in the experiment with DLD-1, in the experiment with DMS-273 and with M19-MEL was > 100 µM (inactive) in each case.

In the case of `CC(=O)OCCOCNC(=S)N/N=C/c1ccc([N+](=O)[O-])s1`, the GI50 in the experiment with SNB-78 is > 100 µM (inactive); with XF498, > 100 µM (inactive); in the experiment with HOP-18, > 100 µM (inactive); in the experiment with DMS-114 it was 7.85 µM (inactive); with LXFL 529, 73.3 µM (inactive); in the experiment with DLD-1 it was 31.1 µM (inactive). In addition, the GI50 is 28.1 µM (inactive) in the experiment with DMS-273 and 18.2 µM (inactive) with M19-MEL.

On to `O=C1C[S+]([O-])c2ccccc2N1` (stereo unspecified), for which the GI50 in the experiment with SNB-78, in the experiment with XF498, in the experiment on HOP-18, with RXF 631, with LXFL 529 and in the experiment on DLD-1 was > 100 µM (inactive) in each case. Moreover, the GI50 with DMS-273 was 16.8 µM (inactive); in the experiment with M19-MEL it was > 100 µM (inactive).

`CCOC(=O)C1=C(Nc2ccc(Cl)cc2Cl)OCC1=O`: the GI50 with SNB-78, in the experiment on XF498, in the experiment with RXF 631, in the experiment with LXFL 529, in the experiment on DLD-1 and in the experiment with DMS-273 was > 100 µM (inactive) in each case. Besides, in the experiment with M19-MEL, the GI50 is > 100 µM (inactive).

Turning to `CCOC(=N)CC(=O)Nc1cccc(C)c1C`, the GI50 in the experiment on SNB-78 was 40.3 µM (inactive); with XF498, > 100 µM (inactive); in the experiment with RXF 631 it was > 100 µM (inactive); in the experiment on LXFL 529, > 100 µM (inactive); in the experiment with DLD-1 it was > 100 µM (inactive); in the experiment on DMS-273 it was > 100 µM (inactive). Besides, the GI50 in the experiment with M19-MEL is > 100 µM (inactive).

As to `CC1CCCC2(O1)OC1CC(=O)OC1C1=C2C(=O)c2ccccc2C1=O` (stereo unspecified), the GI50 in the experiment on SNB-78 is 2.05 µM (inactive); in the experiment on XF498, 2.72 µM (inactive); in the experiment on DMS-114 it was 1.75 µM (inactive); with LXFL 529 it was 1.4 µM (inactive); in the experiment with DMS-273, 1.8 µM (inactive); with M19-MEL, 2.72 µM (inactive).

Consider `CCCCCCCCCCCCCCCC(=O)N[C@H]1CCc2cc(OC)c(OC)c(OC)c2-c2ccc(SC)c(=O)cc21`, for which the GI50 in the experiment on SNB-78 was 0.492 µM (active); with XF498 it was 0.769 µM (active); with HOP-18, 0.933 µM (active); in the experiment on LXFL 529, 0.486 µM (active); with DLD-1 it was 0.365 µM (active); with M19-MEL, 0.458 µM (active).
